# Experimental data as given in PMC10033419, “Blocking NS3–NS4B interaction inhibits dengue virus in non-human primates” (Nature, 2023).
# Where two headings read alike, the source gives them in different places.
# Tested on: DENV-2 RL
# Assay: microbe, parasite or virus in culture
# Type: cell-based
# Conditions: Dengue virus, DENV2, Vero
compound,measurement,setting,value
COc1cc(N[C@H](C(=O)c2c[nH]c3ccc(OC(F)(F)F)cc23)c2ccc(Cl)cc2OC)cc(S(C)(=O)=O)c1 [JNJ-1802],EC50,"read-out: EC50 values [Well 1], A sample, passage 32",100 ng/mL
same,EC50,"read-out: EC50 values [Well 1], A sample, passage 33",200 ng/mL
same,EC50,"read-out: EC50 values [Well 1], A sample, passage 34",200 ng/mL
same,EC50,"read-out: EC50 values [Well 1], A sample, passage 35",200 ng/mL
same,EC50,"read-out: EC50 values [Well 1], A sample, passage 36",200 ng/mL
same,EC50,"read-out: EC50 values [Well 1], A sample, passage 37",400 ng/mL
same,EC50,"read-out: EC50 values [Well 1], A sample, passage 38",400 ng/mL
same,EC50,"read-out: EC50 values [Well 1], A sample, passage 39",1000 ng/mL
same,EC50,"read-out: EC50 values [Well 1], A sample, passage 40",1000 ng/mL
same,EC50,"read-out: EC50 values [Well 1], A sample, passage 41",1000 ng/mL
same,EC50,"read-out: EC50 values [Well 1], A sample, passage 42 (END)",1000 ng/mL
same,EC50,"read-out: EC50 values [Well 1], B sample, passage 1",0.049 ng/mL
same,EC50,"read-out: EC50 values [Well 1], B sample, passage 2",0.049 ng/mL
same,EC50,"read-out: EC50 values [Well 1], B sample, passage 3",0.049 ng/mL
same,EC50,"read-out: EC50 values [Well 1], B sample, passage 4",0.049 ng/mL
same,EC50,"read-out: EC50 values [Well 1], B sample, passage 5",0.049 ng/mL
same,EC50,"read-out: EC50 values [Well 1], B sample, passage 11",0.195 ng/mL
same,EC50,"read-out: EC50 values [Well 1], B sample, passage 12",0.195 ng/mL
same,EC50,"read-out: EC50 values [Well 1], B sample, passage 13",0.391 ng/mL
same,EC50,"read-out: EC50 values [Well 1], B sample, passage 16",0.195 ng/mL
same,EC50,"read-out: EC50 values [Well 1], B sample, passage 17",0.195 ng/mL
same,EC50,"read-out: EC50 values [Well 1], B sample, passage 18",0.195 ng/mL
same,EC50,"read-out: EC50 values [Well 1], B sample, passage 19",0.391 ng/mL
same,EC50,"read-out: EC50 values [Well 1], B sample, passage 20",0.391 ng/mL
same,EC50,"read-out: EC50 values [Well 1], B sample, passage 21",0.391 ng/mL
same,EC50,"read-out: EC50 values [Well 1], B sample, passage 22",0.391 ng/mL
same,EC50,"read-out: EC50 values [Well 1], B sample, passage 24",1.56 ng/mL
same,EC50,"read-out: EC50 values [Well 1], B sample, passage 25",3.13 ng/mL
same,EC50,"read-out: EC50 values [Well 1], B sample, passage 26",6.25 ng/mL
same,EC50,"read-out: EC50 values [Well 1], B sample, passage 27",6.25 ng/mL
same,EC50,"read-out: EC50 values [Well 1], B sample, passage 28",6.25 ng/mL
same,EC50,"read-out: EC50 values [Well 1], B sample, passage 29",25 ng/mL
same,EC50,"read-out: EC50 values [Well 1], B sample, passage 30",25 ng/mL
same,EC50,"read-out: EC50 values [Well 1], B sample, passage 31",31.3 ng/mL
same,EC50,"read-out: EC50 values [Well 1], B sample, passage 32",31.3 ng/mL
same,EC50,"read-out: EC50 values [Well 1], B sample, passage 33",62.5 ng/mL
same,EC50,"read-out: EC50 values [Well 1], B sample, passage 34",62.5 ng/mL
same,EC50,"read-out: EC50 values [Well 1], B sample, passage 35",62.5 ng/mL
same,EC50,"read-out: EC50 values [Well 1], B sample, passage 36",62.5 ng/mL
same,EC50,"read-out: EC50 values [Well 1], B sample, passage 37",62.5 ng/mL
same,EC50,"read-out: EC50 values [Well 1], B sample, passage 38",62.5 ng/mL
same,EC50,"read-out: EC50 values [Well 1], B sample, passage 39",125 ng/mL
same,EC50,"read-out: EC50 values [Well 1], B sample, passage 40",250 ng/mL
same,EC50,"read-out: EC50 values [Well 1], B sample, passage 41",500 ng/mL
same,EC50,"read-out: EC50 values [Well 1], B sample, passage 42",500 ng/mL
same,EC50,"read-out: EC50 values [Well 1], B sample, passage 43",500 ng/mL
same,EC50,"read-out: EC50 values [Well 1], B sample, passage 44",500 ng/mL
same,EC50,"read-out: EC50 values [Well 1], B sample, passage 45",500 ng/mL
same,EC50,"read-out: EC50 values [Well 1], B sample, passage 46",500 ng/mL
same,EC50,"read-out: EC50 values [Well 1], B sample, passage 47",500 ng/mL
same,EC50,"read-out: EC50 values [Well 1], B sample, passage 48",1000 ng/mL
same,EC50,"read-out: EC50 values [Well 1], B sample, passage 49",1000 ng/mL
same,EC50,"read-out: EC50 values [Well 1], B sample, passage 50 (END)",1000 ng/mL
same,EC50,"read-out: EC50 values [Well 2], A sample, passage 1",0.024 ng/mL
same,EC50,"read-out: EC50 values [Well 2], A sample, passage 2",0.024 ng/mL
same,EC50,"read-out: EC50 values [Well 2], A sample, passage 3",0.024 ng/mL
same,EC50,"read-out: EC50 values [Well 2], A sample, passage 4",0.024 ng/mL
same,EC50,"read-out: EC50 values [Well 2], A sample, passage 5",0.024 ng/mL
same,EC50,"read-out: EC50 values [Well 2], A sample, passage 6",0.049 ng/mL
same,EC50,"read-out: EC50 values [Well 2], A sample, passage 7",0.024 ng/mL
same,EC50,"read-out: EC50 values [Well 2], A sample, passage 8",0.024 ng/mL
same,EC50,"read-out: EC50 values [Well 2], A sample, passage 9",0.049 ng/mL
same,EC50,"read-out: EC50 values [Well 2], A sample, passage 13",0.195 ng/mL
same,EC50,"read-out: EC50 values [Well 2], A sample, passage 14",0.391 ng/mL
same,EC50,"read-out: EC50 values [Well 2], A sample, passage 15",0.391 ng/mL
same,EC50,"read-out: EC50 values [Well 2], A sample, passage 17",1.56 ng/mL
same,EC50,"read-out: EC50 values [Well 2], A sample, passage 18",3.13 ng/mL
same,EC50,"read-out: EC50 values [Well 2], A sample, passage 20",12.5 ng/mL
same,EC50,"read-out: EC50 values [Well 2], A sample, passage 21",12.5 ng/mL
same,EC50,"read-out: EC50 values [Well 2], A sample, passage 22",12.5 ng/mL
same,EC50,"read-out: EC50 values [Well 2], A sample, passage 23",12.5 ng/mL
same,EC50,"read-out: EC50 values [Well 2], A sample, passage 24",25 ng/mL
same,EC50,"read-out: EC50 values [Well 2], A sample, passage 25",25 ng/mL
same,EC50,"read-out: EC50 values [Well 2], A sample, passage 26",50 ng/mL
same,EC50,"read-out: EC50 values [Well 2], A sample, passage 27",100 ng/mL
same,EC50,"read-out: EC50 values [Well 2], A sample, passage 28",100 ng/mL
same,EC50,"read-out: EC50 values [Well 2], A sample, passage 29",100 ng/mL
same,EC50,"read-out: EC50 values [Well 2], A sample, passage 30",100 ng/mL
same,EC50,"read-out: EC50 values [Well 2], A sample, passage 31",50 ng/mL
same,EC50,"read-out: EC50 values [Well 2], A sample, passage 32",50 ng/mL
same,EC50,"read-out: EC50 values [Well 2], A sample, passage 33",100 ng/mL
same,EC50,"read-out: EC50 values [Well 2], A sample, passage 34",100 ng/mL
same,EC50,"read-out: EC50 values [Well 2], A sample, passage 35",100 ng/mL
same,EC50,"read-out: EC50 values [Well 2], A sample, passage 36",100 ng/mL
same,EC50,"read-out: EC50 values [Well 2], A sample, passage 37",200 ng/mL
same,EC50,"read-out: EC50 values [Well 2], A sample, passage 38",200 ng/mL
same,EC50,"read-out: EC50 values [Well 2], A sample, passage 39",500 ng/mL
same,EC50,"read-out: EC50 values [Well 2], A sample, passage 40",500 ng/mL
same,EC50,"read-out: EC50 values [Well 2], A sample, passage 41",500 ng/mL
same,EC50,"read-out: EC50 values [Well 2], A sample, passage 42 (END)",500 ng/mL
same,EC50,"read-out: EC50 values [Well 2], B sample, passage 1",0.024 ng/mL
same,EC50,"read-out: EC50 values [Well 2], B sample, passage 2",0.024 ng/mL
same,EC50,"read-out: EC50 values [Well 2], B sample, passage 3",0.024 ng/mL
same,EC50,"read-out: EC50 values [Well 2], B sample, passage 4",0.024 ng/mL
same,EC50,"read-out: EC50 values [Well 2], B sample, passage 5",0.024 ng/mL
same,EC50,"read-out: EC50 values [Well 2], B sample, passage 6",0.049 ng/mL
same,EC50,"read-out: EC50 values [Well 2], B sample, passage 7",0.049 ng/mL
same,EC50,"read-out: EC50 values [Well 2], B sample, passage 8",0.049 ng/mL
same,EC50,"read-out: EC50 values [Well 2], B sample, passage 9",0.049 ng/mL
same,EC50,"read-out: EC50 values [Well 2], B sample, passage 10",0.049 ng/mL
same,EC50,"read-out: EC50 values [Well 2], B sample, passage 13",0.195 ng/mL
same,EC50,"read-out: EC50 values [Well 2], B sample, passage 14",0.049 ng/mL
same,EC50,"read-out: EC50 values [Well 2], B sample, passage 15",0.049 ng/mL
same,EC50,"read-out: EC50 values [Well 2], B sample, passage 19",0.195 ng/mL
same,EC50,"read-out: EC50 values [Well 2], B sample, passage 20",0.195 ng/mL
same,EC50,"read-out: EC50 values [Well 2], B sample, passage 21",0.195 ng/mL
same,EC50,"read-out: EC50 values [Well 2], B sample, passage 22",0.195 ng/mL
same,EC50,"read-out: EC50 values [Well 2], B sample, passage 23",0.391 ng/mL
same,EC50,"read-out: EC50 values [Well 2], B sample, passage 25",1.56 ng/mL
same,EC50,"read-out: EC50 values [Well 2], B sample, passage 26",3.13 ng/mL
same,EC50,"read-out: EC50 values [Well 2], B sample, passage 27",3.13 ng/mL
same,EC50,"read-out: EC50 values [Well 2], B sample, passage 28",3.13 ng/mL
same,EC50,"read-out: EC50 values [Well 2], B sample, passage 29",12.5 ng/mL
same,EC50,"read-out: EC50 values [Well 2], B sample, passage 31",15.6 ng/mL
same,EC50,"read-out: EC50 values [Well 2], B sample, passage 32",15.6 ng/mL
same,EC50,"read-out: EC50 values [Well 2], B sample, passage 33",31.3 ng/mL
same,EC50,"read-out: EC50 values [Well 2], B sample, passage 34",31.3 ng/mL
same,EC50,"read-out: EC50 values [Well 2], B sample, passage 35",31.3 ng/mL
same,EC50,"read-out: EC50 values [Well 2], B sample, passage 36",31.3 ng/mL
same,EC50,"read-out: EC50 values [Well 2], B sample, passage 37",31.3 ng/mL
same,EC50,"read-out: EC50 values [Well 2], B sample, passage 38",31.3 ng/mL
same,EC50,"read-out: EC50 values [Well 2], B sample, passage 39",62.5 ng/mL
same,EC50,"read-out: EC50 values [Well 2], B sample, passage 40",125 ng/mL
same,EC50,"read-out: EC50 values [Well 2], B sample, passage 41",250 ng/mL
same,EC50,"read-out: EC50 values [Well 2], B sample, passage 42",250 ng/mL
same,EC50,"read-out: EC50 values [Well 2], B sample, passage 43",250 ng/mL
same,EC50,"read-out: EC50 values [Well 2], B sample, passage 44",250 ng/mL
same,EC50,"read-out: EC50 values [Well 2], B sample, passage 45",250 ng/mL
same,EC50,"read-out: EC50 values [Well 2], B sample, passage 46",250 ng/mL
same,EC50,"read-out: EC50 values [Well 2], B sample, passage 47",250 ng/mL
same,EC50,"read-out: EC50 values [Well 2], B sample, passage 48",500 ng/mL
same,EC50,"read-out: EC50 values [Well 2], B sample, passage 49",500 ng/mL
same,EC50,"read-out: EC50 values [Well 2], B sample, passage 50 (END)",500 ng/mL
